Experimental data: US20110173718A1, “HERBICIDE TOLERANT PLANTS” (SYNGENTA CROP PROTECTION, INC., priority 2008, published 2011)

Assays:
weeds [1] = assay: Glasshouse weed control, HST inhibitors alone and with A22, post-emergence; format: in vivo; settings: 336 h, 14 DAT, single replicate, read-out: % control score, Obs; for pest or weed control at 15.625 g/ha: 15.625 g/ha alone; for pest or weed control at 62.5 g/ha: 62.5 g/ha alone; for pest or weed control at 250 g/ha: 250 g/ha alone
Method in brief: (§1)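 Weeds grown in glasshouse trays (24-27 C day, 18-21 C night, ~15 h photoperiod) and track-sprayed in 0.2% X77 at […], pre-emergence or post-emergence at about 7-12 d. HPPD inhibitor A22 applied at 2 g/ha alone or mixed with HST herbicides. Damage scored 0–100% at 14 DAT; synergy calculated by Colby formula.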

weeds [2] = assay: Glasshouse weed control, HST inhibitors alone and with A22, pre-emergence; format: in vivo; settings: 336 h, 14 DAT; for pest or weed control at 15.625 g/ha: HST inhibitor rate 15.625 g/ha; for pest or weed control at 62.5 g/ha: HST inhibitor rate 62.5 g/ha; for pest or weed control at 250 g/ha: HST inhibitor rate 250 g/ha
Method in brief: as §1

[3] = BRAPL, read-out: BRAPL Obs, % control score
[4] = PANMI, read-out: PANMI Obs, % control score
[5] = SIDSP, read-out: SIDSP Obs, % control score
[6] = Digitaria sanguinalis, DIGSA, read-out: DIGSA Obs, % control score
[7] = Echinochloa crus-galli, ECHCG, read-out: ECHCG Obs, % control score
[8] = Setaria faberi, SETFA, read-out: SETFA Obs, % control score

Row | SMILES | pest or weed control at 15.625 g/ha (weeds [1]; BRAPL) [%] | pest or weed control at 62.5 g/ha (weeds [1]; BRAPL) [%] | pest or weed control at 250 g/ha (weeds [1]; BRAPL) [%] | pest or weed control at 15.625 g/ha (weeds [1]; PANMI) [%] | pest or weed control at 62.5 g/ha (weeds [1]; PANMI) [%] | pest or weed control at 250 g/ha (weeds [1]; PANMI) [%] | pest or weed control at 15.625 g/ha (weeds [1]; SIDSP) [%] | pest or weed control at 62.5 g/ha (weeds [1]; SIDSP) [%] | pest or weed control at 250 g/ha (weeds [1]; SIDSP) [%] | pest or weed control at 15.625 g/ha (weeds [1]; Digitaria sanguinalis, DIGSA) [%] | pest or weed control at 62.5 g/ha (weeds [1]; Digitaria sanguinalis, DIGSA) [%] | pest or weed control at 250 g/ha (weeds [1]; Digitaria sanguinalis, DIGSA) [%] | pest or weed control at 15.625 g/ha (weeds [1]; Echinochloa crus-galli, ECHCG) [%] | pest or weed control at 62.5 g/ha (weeds [1]; Echinochloa crus-galli, ECHCG) [%] | pest or weed control at 250 g/ha (weeds [1]; Echinochloa crus-galli, ECHCG) [%] | pest or weed control at 15.625 g/ha (weeds [1]; Setaria faberi, SETFA) [%] | pest or weed control at 62.5 g/ha (weeds [1]; Setaria faberi, SETFA) [%] | pest or weed control at 250 g/ha (weeds [1]; Setaria faberi, SETFA) [%] | pest or weed control at 15.625 g/ha (weeds [2]; [3]) [%] | pest or weed control at 62.5 g/ha (weeds [2]; [3]) [%] | other results
1 | O=c1c(-c2cc(C(F)(F)F)ccc2Cl)c(O)c2nccnc2n1CC(F)F [Compound 2.9] | 15 | 55 | 70 | 30 | 50 | 70 | 10 | 20 | 20 | 2 | 10 | 15 | 20 | 40 | 70 | 20 | 50 | 65 | 0 | 2 | pest or weed control at 250 g/ha (weeds [2]; [3]): 50%; pest or weed control at 15.625 g/ha (weeds [2]; [4]): 0%; pest or weed control at 62.5 g/ha (weeds [2]; [4]): 0%; pest or weed control at 250 g/ha (weeds [2]; [4]): 60%; pest or weed control at 15.625 g/ha (weeds [2]; [5]): 0%; pest or weed control at 62.5 g/ha (weeds [2]; [5]): 0%; pest or weed control at 250 g/ha (weeds [2]; [5]): 40%; pest or weed control at 15.625 g/ha (weeds [2]; [6]): 0%; pest or weed control at 62.5 g/ha (weeds [2]; [6]): 0%; pest or weed control at 250 g/ha (weeds [2]; [6]): 65%; pest or weed control at 15.625 g/ha (weeds [2]; [7]): 0%; pest or weed control at 62.5 g/ha (weeds [2]; [7]): 0%; pest or weed control at 250 g/ha (weeds [2]; [7]): 60%; pest or weed control at 15.625 g/ha (weeds [2]; [8]): 0%; pest or weed control at 62.5 g/ha (weeds [2]; [8]): 0%; pest or weed control at 250 g/ha (weeds [2]; [8]): 30%
2 | O=c1c(-c2c(F)ccc(Br)c2Cl)c(O)c2cccnc2n1CC(F)F [Compound 2.15] | 0 | 0 | 5 | 0 | 0 | 0 | 0 | 10 | 15 | 0 | 0 | 0 | 0 | 0 | 2 | 0 | 0 | 2 | 0 | 0 | pest or weed control at 250 g/ha (weeds [2]; [3]): 0%; pest or weed control at 15.625 g/ha (weeds [2]; [4]): 0%; pest or weed control at 62.5 g/ha (weeds [2]; [4]): 0%; pest or weed control at 250 g/ha (weeds [2]; [4]): 0%; pest or weed control at 15.625 g/ha (weeds [2]; [5]): 0%; pest or weed control at 62.5 g/ha (weeds [2]; [5]): 0%; pest or weed control at 250 g/ha (weeds [2]; [5]): 0%; pest or weed control at 15.625 g/ha (weeds [2]; [6]): 0%; pest or weed control at 62.5 g/ha (weeds [2]; [6]): 0%; pest or weed control at 250 g/ha (weeds [2]; [6]): 0%; pest or weed control at 15.625 g/ha (weeds [2]; [7]): 0%; pest or weed control at 62.5 g/ha (weeds [2]; [7]): 0%; pest or weed control at 250 g/ha (weeds [2]; [7]): 0%; pest or weed control at 15.625 g/ha (weeds [2]; [8]): 0%; pest or weed control at 62.5 g/ha (weeds [2]; [8]): 0%; pest or weed control at 250 g/ha (weeds [2]; [8]): 0%
3 | O=c1c(-c2c(F)ccc(Br)c2Cl)c(O)c2nccnc2n1CC(F)F [Compound 2.8] | 20 | 55 | 85 | 40 | 50 | 80 | 30 | 45 | 50 | 5 | 20 | 60 | 10 | 40 | 65 | 5 | 65 | 60 | 0 | 1 | pest or weed control at 250 g/ha (weeds [2]; [3]): 15%; pest or weed control at 15.625 g/ha (weeds [2]; [4]): 0%; pest or weed control at 62.5 g/ha (weeds [2]; [4]): 0%; pest or weed control at 250 g/ha (weeds [2]; [4]): 60%; pest or weed control at 15.625 g/ha (weeds [2]; [5]): 0%; pest or weed control at 62.5 g/ha (weeds [2]; [5]): 0%; pest or weed control at 250 g/ha (weeds [2]; [5]): 2%; pest or weed control at 15.625 g/ha (weeds [2]; [6]): 0%; pest or weed control at 62.5 g/ha (weeds [2]; [6]): 0%; pest or weed control at 250 g/ha (weeds [2]; [6]): 30%; pest or weed control at 15.625 g/ha (weeds [2]; [7]): 0%; pest or weed control at 62.5 g/ha (weeds [2]; [7]): 2%; pest or weed control at 250 g/ha (weeds [2]; [7]): 50%; pest or weed control at 15.625 g/ha (weeds [2]; [8]): 0%; pest or weed control at 62.5 g/ha (weeds [2]; [8]): 0%; pest or weed control at 250 g/ha (weeds [2]; [8]): 10%
